Laboratory results from patent US10039806B2, “Methods and compositions for treating antiprogestin-resistant cancers” (Fundación Sales, priority 2011, dated 2018).

Tests used:
[1] = Histology of livers, spleens and kidneys of 5azadC-treated mice; type: in vivo, mouse; details: 0.75 and 1 mg/kg every other day
Experimental: (§1) H&E stained sections of livers, spleens, and kidneys from the 5azadC-treated mice (1 mg/kg or 0.75 mg/kg/every other day; n=5) were studied by an expert mouse pathologist. The percentage of tumor stoma versus tumor parenchyma was quantified with the ImageJ software in treated and untreated tumors. The stromal area in relation to the total tumor area was calculated in five representative fields of each sample, using 400× magnification, in three different tumor samples of each group, and the mean±SEM was calculated. Mitotic and apoptotic indices were counted in 10 and 15 high-power fields (HPFs), respectively, of each section, using 1000× magnification, and expressed as the mean±SEM of the percentage of the ratios between the total number of events (mitosis or apoptosis) and the total cell number per HPF. Mitotic figures were identified morphologically by the condensed “hairy” aspect of the chromosomes. Morphological identification of apoptosis was performed according to criteria previously reported, which correlated with the deoxynucleotidyl transferase mediated dUTP-biotin nick end labeling (TUNEL) method.

C4-2-HI and 59-HI cells = assay: (3H)-thymidine incorporation with 5azadC and RU-486 in 10% FCS; type: cell-based, mouse; details: 5 μM 5azadC, 100 nM RU-486; P<0.001
Experimental: (3H)-thymidine-uptake was used as an indirect method to evaluate cell proliferation. In brief, cells were seeded into 96-well microplates. After attachment (24 h), the cells were incubated for 24 h with 1% steroid-stripped FCS and then for 48 h with the experimental solutions to be tested in 1% chFCS. Fifty percent of the medium was replaced with fresh medium every 24 h. […] In experiments in which 5azadC was used, the experiments were carried out using proliferating cells (presence of 10% FCS) to guarantee the effect of the demethylating agent. Three different experiments were made using octuplicates, and the means and standard deviations of one representative experiment of the other three are shown.

[2] = test system: PRA and PRB in C4-2-HI and 59-HI cells; assay: PR isoform expression after 5azadC in vitro (immunofluorescence, western blot); type: cell-based, mouse; details: 96 h
Experimental: C4-2-HI and 59-HI epithelial cells from primary cell cultures were allowed to attach for 24 h. The medium was replaced with fresh medium with 10% FCS, and 5azadC was added for 96 h. The medium was refreshed daily. Cells were processed for western blot or immunofluorescence to evaluate PR expression.
Cytosolic or nuclear extracts were processed for western blots as described previously. The cells were lysed using Mammalian Protein Extraction Reagent (Pierce, Rockford, Ill.) according the manufacturer's instructions. […] The band intensities from 3 to 4 different tumor samples indifferent western blots were quantified using Image Quant software.
Frozen sections or cells grown in chamber slides, fixed in 70% ethanol for 1 h, were incubated with antibodies recognizing Dnmt1, Dnmt3a, Dnmt3b, PRA (Ab-7), RPB (Ab-6), or GR, in blocking buffer at a 1:200 dilution overnight at 4° C. […] Stained cells were analyzed using a Nikon Eclipse E800 Laser Confocal Microscope and EZ-C1 2.20 software. Cell staining was quantified using Image Quant software.

59-HI tumors = assay: Constitutive-resistant tumor transplanted s.c. in BALB/c mice; type: in vivo, mouse
Experimental: (§2) C4-2-HI, 59-HI, and C4-HIR tumors were transplanted s.c nearby the mammary gland 4th in syngenic mice, and measured every 2 days (length and width). Treatments were initiated when the tumors were palpable. […] The mice were inoculated intraperitoneally (i.p.) with 0.75 mg/kg 5azadC (for C4-2-HI and C4-HIR tumors) or 1 mg/kg 5azadC (for 59-HI tumors) every other day. All the experiments were repeated twice using five mice per group. The animals were euthanized after 13 days of treatment, and tumor samples were removed and frozen at −80° C. or fixed in 10% formaldehyde.
(§3) Cytosolic or nuclear extracts were processed for western blots as described previously. The cells were lysed using Mammalian Protein Extraction Reagent (Pierce, Rockford, Ill.) according the manufacturer's instructions. The western blot membranes were incubated with antibodies against PR (C-19, Santa Cruz Biotech, CA, or Ab-7, Neomarkers, Lab Vision Corp, Fremont, Calif.), PRB (Ab-6, Neomarkers), ERKs (SC-94, Santa Cruz Biotech), E-Cad (610182, BD), Actin (1-19, Santa Cruz Biotech), DnmtI, Dnmt3a and Dnmt3b (H-300, H-295, and H-230, respectively, Santa Cruz Biotech), RARβ (SC-14028, Santa Cruz Biotech), PTEN Ab32199, Abcam), p16 (SC-1207, Santa Cruz Biotech), Rb (SC-50, Santa Cruz Biotech), or glucocorticoid receptors (GRs) (SC-1004, Santa Cruz Biotech) overnight at 4° C., at a concentration of 2 μg/ml in PBST (0.8% NaCl, 0.02% KCl, 0.144% Na2PO4, 0.024% KH2PO4, pH 7.4, 0.1% Tween 20). The band intensities from 3 to 4 different tumor samples indifferent western blots were quantified using Image Quant software.
(§4) Sections of formalin-fixed, paraffin-embedded tissue were processed as previously described and stained with the PRA-specific antibody (C-19) using the avidin-biotin-peroxidase complex technique (Vectastain Elite ABC kit; Vector), as described previously.
as §1
as §2, with “C4-2-HI” for “C4-2-HI, 59-HI,”, “59-HI” for “C4-HIR”, “every other day” for “(for C4-2-HI”, “s.c. with” for “C4-HIR tumors) or”, “TSA” for “5azadC (for 59-HI tumors)”, “−80 C” for “−80° C.”

C4-2-HI tumors = assay: as above; type: in vivo, mouse
Experimental: as §2, §3, §4, §1
as §2, with “C4-2-HI” for “C4-2-HI, 59-HI,”, “59-HI” for “C4-HIR”, “every other day” for “(for C4-2-HI”, “s.c. with” for “C4-HIR tumors) or”, “TSA” for “5azadC (for 59-HI tumors)”, “−80 C” for “−80° C.”

GR in C4-2-HI cells = assay: GR expression in vitro (immunofluorescence); type: cell-based, mouse; details: 5×10^-7 M, 96 h
Experimental: Frozen sections or cells grown in chamber slides, fixed in 70% ethanol for 1 h, were incubated with antibodies recognizing Dnmt1, Dnmt3a, Dnmt3b, PRA (Ab-7), RPB (Ab-6), or GR, in blocking buffer at a 1:200 dilution overnight at 4° C. They were then incubated with a FITC conjugated anti-rabbit (FI-1000, Vector Laboratories Burlingame, Calif.; 1:100 dilution) secondary antibody for 1 h at room temperature. Nuclei were stained with propidium iodide (PI, Sigma). The slides were mounted using Vectashield (Vector Laboratories). Stained cells were analyzed using a Nikon Eclipse E800 Laser Confocal Microscope and EZ-C1 2.20 software. Cell staining was quantified using Image Quant software.

[3] = test system: C4-HI or C4-HIR epithelial cells with carcinoma-associated fibroblasts; assay: (3H)-thymidine uptake, co-cultures with carcinoma-associated fibroblasts; type: cell-based, mouse; details: own or other tumor's fibroblasts
Experimental: Trypsinized cells were resuspended and equal amounts of epithelial cells and carcinoma-associated fibroblasts were seeded with 10% FCS that was replaced after attachment by 1% steroid-stripped FCS. […] The same amount of epithelial cells or carcinoma-associated fibroblasts or double the amount of purified cells was used for comparison.
(§5) (3H)-thymidine-uptake was used as an indirect method to evaluate cell proliferation. In brief, cells were seeded into 96-well microplates. After attachment (24 h), the cells were incubated for 24 h with 1% steroid-stripped FCS and then for 48 h with the experimental solutions to be tested in 1% chFCS. Fifty percent of the medium was replaced with fresh medium every 24 h. The cells were incubated with 0.4 μCi of 3H-thymidine (specific activity: 20 Ci/mmol) for 24 h, trypsinized, and harvested in a cell harvester. In experiments in which 5azadC was used, the experiments were carried out using proliferating cells (presence of 10% FCS) to guarantee the effect of the demethylating agent. Three different experiments were made using octuplicates, and the means and standard deviations of one representative experiment of the other three are shown. The results are expressed as the proliferation index (cpm […] experimental group/cpm control; mean±SEM).

C4-2-HI cells = assay: (3H)-thymidine uptake, primary cultures of purified epithelial cells; type: cell-based, mouse; details: 48 h, 1% chFCS
Experimental: (§6) Epithelial cells and carcinoma-associated fibroblasts were separated by differential sedimentation and plated with 10% FCS. Carcinoma-associated fibroblasts were allowed to attach for 0.5 h and the epithelial cells for 24-48 h. The medium was replaced by fresh medium with 10% FCS; thereafter, it was changed every 2-3 days.
as §5

C4-HI cells = assay: as above; type: cell-based, mouse; details: 48 h, 1% chFCS; P<0.001
Experimental: as §6, §5

C4-HIR cells = assay: as above; type: cell-based, mouse; details: 48 h, 1% chFCS; P<0.001
Experimental: as §6, §5

T47D cells = details: 5% FCS; cited from earlier work

Nc1ncn([C@H]2C[C@H](O)[C@@H](CO)O2)c(=O)n1 [5azadC, 5-aza-2′-deoxycytidine]
Histological evaluation of liver, spleen, and kidney [1]: no signs of toxicity | cell proliferation, (3H)-thymidine incorporation (C4-2-HI and 59-HI cells): did not alter cell proliferation | PRA expression ([2]; 5×10^-7 M (C4-2-HI), 5×10^-6 M (59-HI), P<0.001): increase in PRA expression | PRB staining (Ab-6 antibody) [2]: no significant changes | PRA staining (immunohistochemistry) (59-HI tumors; 5azadC-treated tumors): only cytoplasmic and perinuclear PRA staining | PRA expression (western blots) (59-HI tumors; P<0.01): increase in PRA expression | tumor growth (59-HI tumors; RU-486 12 mg/kg/day s.c., 5azadC 1 mg/kg every other day i.p., 13 days): no significant differences | PRB level (59-HI tumors; not shown): not significantly modified | PRA staining (immunohistochemistry) (C4-2-HI tumors; 5azadC-treated vs control tumors): increase in nuclear and cytoplasmic PRA staining | PRA expression (western blots) (C4-2-HI tumors; P<0.01): increase in PRA expression | tumor growth (C4-2-HI tumors; RU-486 12 mg/kg/day s.c., 5azadC 0.75 mg/kg every other day i.p., 13 days): no significant differences | PRB level (C4-2-HI tumors; not shown): not significantly modified | expression of GR (western blots) (C4-2-HI tumors; tumors from 5azadC-treated mice): decreased | expression of GR (immunofluorescence) (GR in C4-2-HI cells): decreased

CC(=O)O[C@]1(C(C)=O)CC[C@H]2[C@@H]3C[C@H](C)C4=CC(=O)CC[C@]4(C)[C@H]3CC[C@@]21C [MPA, medroxyprogesterone acetate]
co-culture cell proliferation [3]: stimulated | cell proliferation (proliferation index) (C4-2-HI cells): no differences were observed | cell proliferation (proliferation index) (C4-HI cells): strong proliferative effect | cell proliferation (proliferation index) (C4-HIR cells): proliferative effect | effects on T47D cells (T47D cells): inhibitory effects
